Here are results for two molecules from BindingDB's records for patent US20240025893 (Asahi Kasei Pharma, 2024).

Each structure is given as a SMILES string.

The experiment addresses T1, Interleukin-1 receptor-associated kinase 4 (Homo sapiens, UniProt Q9NWZ3).
T1 sequence (Q9NWZ3 whole entry): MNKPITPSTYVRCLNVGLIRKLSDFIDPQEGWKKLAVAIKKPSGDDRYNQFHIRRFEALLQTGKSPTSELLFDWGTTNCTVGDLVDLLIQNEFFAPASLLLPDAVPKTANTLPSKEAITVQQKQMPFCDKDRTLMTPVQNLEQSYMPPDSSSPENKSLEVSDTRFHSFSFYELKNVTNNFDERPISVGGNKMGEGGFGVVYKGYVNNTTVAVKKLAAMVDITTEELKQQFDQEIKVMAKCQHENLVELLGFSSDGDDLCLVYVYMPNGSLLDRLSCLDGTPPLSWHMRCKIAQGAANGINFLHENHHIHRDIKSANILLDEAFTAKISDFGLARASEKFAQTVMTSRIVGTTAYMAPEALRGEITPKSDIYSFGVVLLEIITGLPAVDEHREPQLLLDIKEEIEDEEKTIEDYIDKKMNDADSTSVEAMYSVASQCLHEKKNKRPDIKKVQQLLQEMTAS
Nature of the experiment: Measurement of Human IRAK-4 Inhibitory Activity. The method, then:
For the measurement of the activity of the human IRAK-4 (Invitrogen, Cat. PV3362), phosphorylation of the IRAK-4 peptide substrate (biotin-KKKKRFSFKKSFKC) by the enzyme in the presence of 10 μM ATP (Sigma-Aldrich, Cat. A7699) was measured by the TR-FRET method. The enzymatic reaction was performed in a reaction buffer containing 50 mM HEPES (pH 7.2), 1 mM DTT, 0.1 mM Na3VO4, 5 mM MgCl2, 1 mM MnCl2, and 0.1% bovine serum albumin. For the measurement of the IRAK-4 inhibitory activity, a test compound was added to the reaction buffer containing 1 nM IRAK-4, 0.5 μM peptide substrate, and 10 μM ATP, and the mixture was incubated at 23° C. for 30 minutes. Then, a detection solution containing an antibody labeled with europium cryptate (0.3 μg/mL, the antibody was prepared by using the IRAK-4 peptide substrate as the antigen), streptavidin-XL665 (2 μg/mL, CisBio, Cat. 610SAXLB), 50 mM HEPES (pH 7.2), 0.1% BSA, 120 mM KF, and 66.7 mM EDTA (all the concentrations of the reagents are final concentrations) was added to terminate the reaction, and then the mixture was further incubated at 23° C. for 60 minutes.

Usually IC50 stands for the point on the concentration scale where inhibition reaches its midpoint. A higher IC50 goes with a need for much substance. In the case of `CO[C@H]1C[C@@H](C(=O)Nc2nc3ccc(-c4cnc(CO[C@H]5CCC[C@@H]5O)nc4)cc3s2)C1` [US20240025893, Example a-01-06], the IC50 was 3.29 nM.
As for `CC(C)(C)OC1CC(C(=O)Nc2cc3cc(-c4cnc(CO[C@H]5CCC[C@@H]5O)nc4)ccn3n2)C1` (some centres not stated) [US20240025893, Examplee-03-01], the figure is 1.75 nM.
